Data: patent US20140255341A1, “Tumor Selective Chemokine Modulation” (priority 2011, published 2014)

Tests used:
macrophages = test: Chemokine production by in vitro generated macrophages, ELISA of 48 hr. cultures; format: cell-based
Experimental: FIG. 5. […] Data from one representative experiment of three. […] The concentrations of chemokines in 48 hr. cultures were analyzed by ELISA. […] In order to test the possibility of correcting the chemokine environment in the tumors with low ratios of Teff- to Treg-attracting chemokines, we tested in pilot studies the feasibility of modulating their production using different combinations of IFNα, indomethacin (COX1/2 inhibitor) and poly-I:C in individual populations of tumor-relevant cells (known to infiltrate tumors), such as macrophages, or fibroblasts.

[1] = tested on: colorectal cancer tumor tissues; test: Ex vivo tumor/tissue explant culture, chemokine ELISA; format: cell-based, human; conditions: for CCL5 expression / production / CXCL10 expression / production: tumor tissues ex vivo, 48 hours, ELISA
Experimental: FIG. 6. […] (A) Fresh tumor samples from 11 patients with metastatic colorectal cancer were untreated or treated with IFNα and poly-I:C either individually or in combination for 48 hours. The release of CCL5 and CXCL10 into culture media was analyzed by ELISA. Numbers indicate the prevalence of tumors with each chemokine pattern (respective patterns A, B or C). (B) ELISA analysis of CCL5, CCL22 and CXCL10 in tumors untreated or treated with IFNα+pI:C, with or without indomethacin. (C) Heterogeneous response of different tumor lesions from the same patient (CCL5 and CXCL10 production) to the individual components of the chemokine-modulating cocktail. (D) Indomethacin and celecoxib enhance the IFNα/poly-I:C-induced Teff-attracting chemokine expression, but suppress Treg-attracting chemokine expression in colorectal cancer lesions. All cultures were for 48 hr. Combined data from the tumors of 3 different patients (n=3).
FIG. 7. […] (A) In-situ hybridization for respective chemokine mRNA (black grains) in tumor biopsies which were either left untreated or treated with the combination of indomethacin, IFNa and poly-I:C (IAP). (B) ELISA analysis of the chemokine contents in the supernatants of 48 hour-cultured tumor tissues (untreated or treated) from 10 different patients.
In order to test the feasibility of using these factors to manipulate the complex microenvironment of whole tumor tissues, involving all the above cell types and their interactions, we used an ex vivo tumor/tissue explant culture system previously developed to study migration of DCs. This system allowed us to avoid nonspecific activation of the chemokine-producing cells during tumor dissociation.

melanoma tissue = melanoma tissue ex vivo, increasing concentrations of melphalan
Experimental: FIG. 13. […] Tumor biopsies were cultured ex vivo in the presence of increasing concentrations of melphalan in the absence or presence of the triple combination (CAP) of the Celecoxib, IFNα and poly-I:C. Secretion levels of CC22 and CXCL10 were measured by ELISAs.

[2] = tested on: marginal liver tissue and liver-metastatic colorectal cancer; test: Glycogen phosphorylase mRNA expression as check of tissue survival; format: cell-based, human; conditions: at 20 μM
Experimental: (§1) FIG. 9. Selective induction of CXCL10 and CCL5 in liver metastases compared to normal liver tissues: role of NF-κB. Matched samples of marginal liver tissues and liver-metastatic colorectal cancer tissues (3 biopsies in 1 ml in 24 well plate), were cultured for 24 hrs either untreated or treated with IFNα+poly-I:C+indomethacin and (A) analyzed for CCL5 and CXCL10 expression by Taqman. […] The supernatants were analyzed for CCL5 production by ELISA (see matched CXCL10 data in FIG. 4). (C) CAY10470 (20 μM) effects on liver glycogen phosphorylase mRNA expression in matched marginal liver tissue and liver-metastatic colorectal cancer.
CAY10470, used in these experiments (at 20 μM), was non-toxic, as shown by similar expression of glycogen phosphorylase mRNA in untreated and treated tissues (FIG. 9C).

[3] = tested on: liver-metastatic colorectal cancer tissues versus marginal liver tissues; test: Chemokine production in matched liver-metastatic tumor and marginal liver tissues (ELISA, Taqman); format: cell-based, human; conditions: tumor tissues, NF-κB inhibitor at 20 μM
Experimental: as §1
Using matched tissue samples from 10 patients with metastatic colon cancer, we compared the responsiveness to the chemokine-modulating regimen between liver-metastatic tumor tissues and marginal tissues. […] This increased responsiveness of tumors compared to marginal tissues was not due to decreased survival of the marginal tissues, as determined by undisturbed expression levels of glycogen phosphorylase (FIG. 9C).

fibroblasts = test: Chemokine production by fibroblasts, ELISA of 48 hr. cultures; format: cell-based
From the text: FIG. 5. Interplay between COX inhibitor indomethacin, IFNα and poly-I:C in the induction of a desirable patterns of chemokine expression in isolated cell cultures. (A) Dose-dependent impact of IFNa and poly-I:C on the production of Teff-, and Treg-attracting chemokines by in vitro generated macrophages (see M&M) and in fibroblasts (obtained from Cascade Biological). Data from one representative experiment of three. (B) Effects of indomethacin on Teff-, and Treg-attracting chemokines produced by macrophages (N=3) by ELISA analysis. The concentrations of chemokines in 48 hr. cultures were analyzed by ELISA.
In order to test the possibility of correcting the chemokine environment in the tumors with low ratios of Teff- to Treg-attracting chemokines, we tested in pilot studies the feasibility of modulating their production using different combinations of IFNα, indomethacin (COX1/2 inhibitor) and poly-I:C in individual populations of tumor-relevant cells (known to infiltrate tumors), such as macrophages, or fibroblasts.

[4] = whole tumor tissues, COX inhibitor added to IFNα and poly-I:C

COc1ccc2c(c1)c(CC(=O)O)c(C)n2C(=O)c1ccc(Cl)cc1 [indomethacin]
production of CCL22 (macrophages): suppression of CCL22 production | effects of IFNα and poly-I:C on Teff- and Treg-attracting chemokines (CCL5, CXCL10 induction, CCL22 suppression) (macrophages; indomethacin added): further potentiated | IFNα/poly-I:C-induced Teff-attracting chemokine expression ([1]; colorectal cancer lesions, 48 hr, tumors of 3 patients): enhance | Treg-attracting chemokine expression ([1]; colorectal cancer lesions, with IFNα/poly-I:C, 48 hr, tumors of 3 patients): suppress | CCL22 levels [1, 4]: reduced | production of CCL5 induced by the combination IFNα and poly-I:C [1, 4]: further enhanced | production of CXCL10 induced by the combination IFNα and poly-I:C [1, 4]: further enhanced

N[C@@H](Cc1ccc(N(CCCl)CCCl)cc1)C(=O)O [melphalan]
ratio between Treg-attracting and Teff-attracting chemokines (CCL22/CXCL10) (melanoma tissue): undesirable elevation

Nc1ccc2ncnc(NCCc3ccc(Oc4ccccc4)cc3)c2c1 [CAY10470]
toxicity (expression of glycogen phosphorylase mRNA in untreated and treated tissues) [2]: non-toxic | CCL5 up-regulation by the chemokine-modulating regimen [3]: blocked | CXCL10 induction by IFNα/poly-I:C/indomethacin [3]: completely abrogated

IFNα
production of CCL22 (fibroblasts): strong suppressive effect | production of CCL22 (macrophages): strong suppressive effect | CCL5 expression / production [1]: variable chemokine expression | CXCL10 expression / production [1]: variable chemokine expression

polyinosinic-polycytidylic acid [poly-I:C]
CCL5 expression / production [1]: variable chemokine expression | CXCL10 expression / production [1]: variable chemokine expression
